pIC50: −log10 of the molar value. The source made the active and inactive calls. The calls are words filed in the database; no cut-off is given here.
Legend:
[1] = Solubility in ethyl acetate incubated for 10 mins; type: physicochemical
[2] = Antioxidant activity assessed as clearing rate incubated for 30 mins under dark condition by DPPH free radical scavenging assay; type: functional
[3] = Antioxidant activity assessed as inhibition of DPPH free radical scavenging activity incubated for 30 mins under dark condition; type: functional
[4] = Inhibition of lipid peroxidation in egg yolk (unknown origin) at 100 uM preheated with compound and FeSO4 for 15 mins followed by TCA/TBA addition measured after 15 mins by absorbance based assay relative to control; type: functional, tissue-based; set-up: scale not given: the % may be the effect or the level left; conditions: time 30.0 min
[5] = Inhibition of lipid peroxidation in egg yolk (unknown origin) preheated with compound and FeSO4 for 15 mins followed by TCA/TBA addition measured after 15 mins by absorbance based assay; type: functional, tissue-based
L02 [6] = test: Anti-MASH activity in palmitate/oleate-stimulated human LO2 cells assessed as reduction in lipid accumulation at 10 to 40 uM incubated for 24 hrs by Oil Red O staining assay; type: functional, cell-based; conditions: dose 10-40 µM
Hepatocyte [7] = test: Anti-MASH activity in palmitate/oleate-stimulated mouse primary hepatocytes assessed as reduction in triglyceride level; type: functional, cell-based
Hepatocyte [8] = test: Anti-MASH activity in palmitate/oleate-stimulated mouse primary hepatocytes assessed as reduction in FASN mRNA level by q-PCR analysis; type: functional, cell-based
L02 [9] = test: Anti-MASH activity in CCl4-stimulated human LO2 cells assessed as reduction in ROS level incubated for 24 hrs by DCFH-DA staining assay; type: functional, cell-based; conditions: dose 2.5-10 µM
Hepatocyte [10] = test: Anti-MASH activity in CCl4-stimulated mouse primary hepatocytes assessed as reduction in ROS level at 2.5 to 10 uM by DCFH-DA staining assay; type: functional, cell-based; conditions: dose 2.5-10 µM
L02 [11] = test: Anti-inflammatory activity in CCl4-stimulated human LO2 cells assessed as reduction in TNF-alpha mRNA level at 1 uM; type: functional, cell-based
Hepatocyte [12] = test: Anti-inflammatory activity in CCl4-stimulated mouse primary hepatocytes assessed as reduction in TNF-alpha mRNA level at 1 uM; type: functional, cell-based
LX-2 = test: Anti-MASH activity in TGF-beta-activated-human LX2 cells assessed as reduction in collagen I level incubated for 48 hrs by Western blot analysis; type: functional, cell-based; conditions: dose 10-40 µM
[13] = Toxicity in male Sprague-Dawley rat model of CCl4-induced ALI assessed as body weight change at 100 mg/kg, IG qd pretreated with compound for 7 days followed by CCl4 administration after 2 hrs post-compound treatment measured after 16 hrs post-CCl4 injection; type: organism-based; conditions: in vivo, po, 186 h
[14] = Toxicity in male Sprague-Dawley rat model of CCl4-induced ALI assessed as animal growth at 100 mg/kg, IG qd pretreated with compound for 7 days followed by CCl4 administration after 2 hrs post-compound treatment measured after 16 hrs post-CCl4 injection; type: organism-based; conditions: in vivo, po, 186 h
Rattus norvegicus [15] = test: Hepatoprotective activity in male Sprague-Dawley rat model of CCl4-induced ALI assessed as reduction in yellowing of liver at 100 mg/kg, IG qd pretreated with compound for 7 days followed by CCl4 administration after 2 hrs post-compound treatment measured after 16 hrs post-CCl4 injection; type: functional, organism-based; conditions: time 186.0 hrs
Rattus norvegicus [16] = test: Hepatoprotective activity in male Sprague-Dawley rat model of CCl4-induced ALI assessed as reduction in dullness of liver margin at 100 mg/kg, IG qd pretreated with compound for 7 days followed by CCl4 administration after 2 hrs post-compound treatment measured after 16 hrs post-CCl4 injection; type: functional, organism-based; conditions: time 186.0 hrs
Rattus norvegicus [17] = test: Hepatoprotective activity in male Sprague-Dawley rat model of CCl4-induced ALI assessed as reduction in white granular fat in liver at 100 mg/kg, IG qd pretreated with compound for 7 days followed by CCl4 administration after 2 hrs post-compound treatment measured after 16 hrs post-CCl4 injection; type: functional, organism-based; conditions: time 186.0 hrs
Rattus norvegicus [18] = test: Hepatoprotective activity in male Sprague-Dawley rat model of CCl4-induced ALI assessed as reduction in roughened surface in liver at 100 mg/kg, IG qd pretreated with compound for 7 days followed by CCl4 administration after 2 hrs post-compound treatment measured after 16 hrs post-CCl4 injection; type: functional, organism-based; conditions: time 186.0 hrs
Rattus norvegicus [19] = test: Hepatoprotective activity in male Sprague-Dawley rat model of CCl4-induced ALI assessed as reduction in MDA level at 100 mg/kg, IG qd pretreated with compound for 7 days followed by CCl4 administration after 2 hrs post-compound treatment measured after 16 hrs post-CCl4 injection; type: functional, organism-based; conditions: time 186.0 hrs
Mus musculus [20] = test: Anti-MASH activity in HFD-fed CCl4-treated male C57BL/6 mouse assessed as reversal of volume of liver at 150 mg/kg, po qd treated for 4 weeks; type: functional, organism-based
Mus musculus [21] = test: Anti-MASH activity in HFD-fed CCl4-treated male C57BL/6 mouse assessed as reversal of mottled texture of liver at 150 mg/kg, po qd treated for 4 weeks; type: functional, organism-based
Mus musculus [22] = test: Anti-MASH activity in HFD-fed CCl4-treated male C57BL/6 mouse assessed as reduction in hepatocyte ballooning in liver at 150 mg/kg, po qd treated for 4 weeks by H and E/Oil red O staining based analysis; type: functional, organism-based
Mus musculus [23] = test: Anti-MASH activity in HFD-fed CCl4-treated male C57BL/6 mouse assessed as reduction in serum HDL cholesterol level at 150 mg/kg, po qd treated for 4 weeks; type: functional, organism-based
Mus musculus [24] = test: Anti-MASH activity in HFD-fed CCl4-treated male C57BL/6 mouse assessed as restoration of liver GSH level at 150 mg/kg, po qd treated for 4 weeks; type: functional, organism-based
Mus musculus [25] = test: Anti-MASH activity in HFD-fed CCl4-treated male C57BL/6 mouse assessed as decrease in liver MDA level at 150 mg/kg, po qd treated for 4 weeks; type: functional, organism-based
Mus musculus [26] = test: Anti-MASH activity in HFD-fed CCl4-treated male C57BL/6 mouse assessed as reduction in collagen deposition in liver at 150 mg/kg, po qd treated for 4 weeks by Masson staining based analysis; type: functional, organism-based
Mus musculus [27] = test: Anti-MASH activity in HFD-fed CCl4-treated male C57BL/6 mouse assessed as reduction in collagen I in liver at 150 mg/kg, po qd treated for 4 weeks by IHC analysis; type: functional, organism-based
Mus musculus [28] = test: Anti-MASH activity in HFD-fed CCl4-treated male C57BL/6 mouse assessed as reduction in alpha-SMA in liver at 150 mg/kg, po qd treated for 4 weeks by IHC analysis; type: functional, organism-based
[29] = MRT (0 to infinity) in overnight-fasted male Sprague-Dawley rat at 150 mg/kg, po measured up to 12 hrs by HPLC analysis; type: ADME, organism-based; conditions: in vivo
[30] = Apparent volume of distribution during terminal phase in overnight-fasted male Sprague-Dawley rat at 150 mg/kg, po measured up to 12 hrs by HPLC analysis; type: ADME, organism-based; conditions: in vivo, read-out: Vz/F
[31] = Oral bioavailability in overnight-fasted male Sprague-Dawley rat assessed as fold increase at 150 mg/kg measured up to 12 hrs by HPLC analysis relative to silybin; type: ADME, organism-based; conditions: in vivo
[32] = Acute toxicity in male KM mouse assessed as abnormalities in animal at 2 g/kg, po administered as single dose measured after 2 weeks; type: organism-based; conditions: in vivo, 2000 mg/kg, 336 h

Compound: COc1cc([C@@H]2Oc3cc([C@H]4Oc5cc(O)cc(O)c5C(=O)[C@@H]4O)ccc3OC2CS)ccc1O (stereo partly drawn)
- solubility [1]: > 1000 mg/mL
- Activity [2]: 92.9%
- pIC50 [3]: 4.48
- Activity [4]: 67%
- pIC50 [5]: 4.38
- Activity (L02 [6]): Active
- Activity (Hepatocyte [7]): Active
- Activity (Hepatocyte [8]): Active
- Activity (L02 [9]): Active
- Activity (Hepatocyte [10]): Active
- Activity (L02 [11]): Active
- Activity (Hepatocyte [12]): Active
- Activity (LX-2): Dose-dependent-effect
- Activity [13]: Non-toxic
- Activity [14]: Non-toxic
- Activity (Rattus norvegicus [15]): Active
- Activity (Rattus norvegicus [16]): Active
- Activity (Rattus norvegicus [17]): Active
- Activity (Rattus norvegicus [18]): Active
- Activity (Rattus norvegicus [19]): Active; Exhibited Better Efficacy Than Silybin
- Activity (Mus musculus [20]): Active; Activity Better Than Silybin
- Activity (Mus musculus [21]): Active; Activity Better Than Silybin
- Activity (Mus musculus [22]): Active; Activity Was Better Than Silybin
- Activity (Mus musculus [23]): Active
- Activity (Mus musculus [24]): Active; Compound Was More Significant Than Silybin
- Activity (Mus musculus [25]): Active; Compound Was More Significant Than Silybin
- Activity (Mus musculus [26]): Active
- Activity (Mus musculus [27]): Active
- Activity (Mus musculus [28]): Active
- MRT inf [29]: 3.51 h
- Vd/F [30]: 6.91 L
- fold change (FC) [31]: > 20
- Activity [32]: Non-toxic

— ChEMBL document CHEMBL6182935, “Discovery of a Novel Silybin Derivative for the Treatment of Metabolic Dysfunction-Associated Steatohepatitis” (J Med Chem, 2025)
